The record followed here is patent US11040987B2 (TenNor Therapeutics Limited, priority 2019, dated 2021).

≈ marks a conversion by molar mass, not a printed value. Like-named read-outs stand apart in the source and are kept apart here.

The target of one experiment is T1, VIM-1 (Pseudomonas aeruginosa, UniProt A0A0F7KYQ8).
T1 construct: made in house
Kind of experiment: β-lactamase inhibition, spectrophotometric assay of nitrocefin hydrolysis. The following applies: class B β-lactamase, 10 μM ZnSO4; 200 μM nitrocefin, 25° C., 2 hours; read-out: IC50 VIM-1. Format: biochemical. An excerpt:
(§1) Hydrolytic inactivation of the β-lactam antibiotics by β-lactamases is the most widespread drug resistant mechanism and the most challenge clinically among Gram-negative bacterial pathogens. Based on the amino acid sequences, the β-lactamases are grouped into four classes (Ambler classification), of which A, C and D are serine hydrolases and B encompasses metallo-β-lactamases. The IC50 of selected derivatives disclosed herein (identified with reference to example number) plus six reference β-lactam or β-lactamase inhibitors were determined against 7 representative β-lactamases of various classes in a standard spectrophotometric assay of nitrocefin hydrolysis. The assay is performed in 384-well plate. The seven recombinant β-lactamases AmpC_AB (from A. baumannii), AmpC_PA (from P. aeruginosa), KPC-2, NDM-1, IMP-1, VIM-1 and OXA 24/40) are expressed and purified. The reaction buffer for class A, C and D enzymes is 100 mM Na2HPO4—KH2PO4 (pH 7.1) plus 0.005% Tween-20, and for class B enzymes 10 μM ZnSO4 is added. […] The 50 μL of reaction solution composed of 2 pM of β-lactamase, 200 μM of nitrocefin and series of 3-fold dilutions of test or control compounds are added by Cybio SELMA system into 384-plate and incubated in dark at 25° C. for 2 hours. The OD490 is read in MC SpectraMax Plus384 plate reader.

In another experiment the target is T2, NDM-1 (Klebsiella pneumoniae, UniProt C7C422).
T2 construct: made in house
The experiment is described as above. In kind it is biochemical. The following applies: class B β-lactamase, 10 μM ZnSO4; 200 μM nitrocefin, 25° C., 2 hours; read-out: IC50 NDM-1.
From the text: as §1

The target of a further experiment is AmpC_AB (Acinetobacter baumannii, UniProt Q6DRA1). Described as above. In kind it is biochemical.
From the text: as §1

The next experiment deals with T3, OXA 24/40 (Acinetobacter baumannii, UniProt Q8RLA6).
T3 construct: made in house
Described as above. Format: biochemical.
From the text: as §1

The next experiment deals with T4, IMP-1 (Serratia marcescens, UniProt P52699).
T4 construct: made in house
The experiment is described as above. Format: biochemical. The note with it: class B β-lactamase, 10 μM ZnSO4; 200 μM nitrocefin, 25° C., 2 hours; read-out: IC50 IMP-1.
From the text: as §1

Another experiment concerns the target T5, AmpC_PA (Pseudomonas aeruginosa, UniProt P24735).
T5 construct: made in house
The experiment is described as above. In kind it is biochemical, P. aeruginosa.
From the text: as §1

The target in a further experiment is T6, KPC-2 (Klebsiella pneumoniae, UniProt Q9F663).
T6 construct: made in house
The experiment is described as above. In kind it is biochemical. The note with it: class A β-lactamase; 200 μM nitrocefin, 25° C., 2 hours; read-out: IC50 KPC-2.
From the text: as §1

A further experiment concerns A.b TNP 41709. Briefly: MIC against A. baumannii clinical isolates, alone and in combination with antibiotics. Format: cell-based. The following applies: for MIC: Acinetobacter baumannii, TNP41709, Compounds alone, read-out: MIC A.b TNP 41709.
A further experiment relates to A.b TNP 41704. The description is as above. The following applies: for MIC: Acinetobacter baumannii, TNP41704, Compounds alone, read-out: MIC A.b TNP 41704. In kind it is cell-based.
The next experiment has as its system K. pneumoniae ATCC 43816. Briefly: MIC determination, broth microdilution, ESKAPE panel. Format: cell-based. The following applies: Klebsiella pneumoniae, ATCC43816; iron-depleted cation-adjusted Mueller-Hinton broth, 2,2-dipyridyl 160 μM; 37° C., 18-20 hours; read-out: MIC K. pneumoniae ATCC 43816. The method, then: (§2) Minimum inhibitory concentration (MIC) is determined by a broth microdilution method according to the recommendation of the Clinical and Laboratory Standards Institute (CLSI) with minor modification. […] Strains of an ESKAPE panel (E. faecium ATCC 700221, S. aureus ATCC 29213, K. pneumoniae ATCC 43816, A. baumannii ATCC 19606, P. aeruginosa ATCC 27853 and Escherichia coli ATCC 25922) were obtained originally from the American Type Culture Collection (ATCC) and used for MIC determinations of compounds. The bacteria inoculum in the test is […].
For orientation: In broth dilution the organism is exposed to a series of concentrations in liquid medium.

The test system of another experiment is A. baumannii ATCC 19606. The description is as above. Format: cell-based. The note with it: Acinetobacter baumannii, ATCC19606; iron-depleted cation-adjusted Mueller-Hinton broth, 2,2-dipyridyl 160 μM; 37° C., 18-20 hours; read-out: MIC A. baumannii ATCC 19606. The protocol:
as §2

For the next experiment, the system named is P. aeruginosa ATCC 27853. The description is as above. The note with it: Pseudomonas aeruginosa, ATCC27853; iron-depleted cation-adjusted Mueller-Hinton broth, 2,2-dipyridyl 160 μM; 37° C., 18-20 hours; read-out: MIC P. aeruginosa ATCC 27853. In kind it is cell-based. The protocol: as §2
For another experiment, the system named is E. faecium ATCC 700221. The experiment is described as above. Format: cell-based. The note with it: Enterococcus faecium, ATCC700221; iron-depleted cation-adjusted Mueller-Hinton broth, 2,2-dipyridyl 160 μM; 37° C., 18-20 hours; read-out: MIC E. faecium ATCC 700221. The protocol: as §2
Experiment [1] relates to Escherichia coli ATCC 25922. The description is as above. In kind it is cell-based. The note with it: ATCC25922, iron-depleted cation-adjusted Mueller-Hinton broth, 2,2-dipyridyl 160 μM, 37° C., 18-20 hours, read-out: MIC E. coli ATCC 25922. The protocol: as §2
The next experiment deals with S. aureus ATCC 29213. The experiment is described as above. In kind it is cell-based. The note with it: Staphylococcus aureus, ATCC29213; iron-depleted cation-adjusted Mueller-Hinton broth, 2,2-dipyridyl 160 μM; 37° C., 18-20 hours; read-out: MIC S. aureus ATCC 29213. The protocol: as §2
The test system of the next experiment is A.b TNP 41708. Kind of experiment: MIC against A. baumannii clinical isolates, alone and in combination with antibiotics. The following applies: for MIC: Acinetobacter baumannii, TNP41708, read-out: MIC A.b TNP 41708. Format: cell-based. The protocol: as §2
[2] abbreviates: Class C β-lactamase, 200 μM nitrocefin, 25° C., 2 hours, read-out: IC50 AmpC_AB.

The IC50 is the midpoint of a concentration-inhibition curve. With `O=C(NC1CCNCC1)[C@@H]1CC[C@@H]2CN1C(=O)N2OS(=O)(=O)O` [Relebactam, reference compound], the IC50 on VIM-1 is more than 200 µM; at NDM-1, more than 200 µM; on AmpC_AB (setting [2]) it was 0.892 µM; at OXA 24/40 it was more than 200 µM; on IMP-1, more than 200 µM.
With `NC(=O)[C@@H]1CC[C@@H]2CN1C(=O)N2OS(=O)(=O)O` [Avibactam, reference compound], the IC50 at VIM-1 is more than 200 µM; at NDM-1 it was more than 200 µM; at AmpC_AB (setting [2]), 2.61 µM; at IMP-1, more than 200 µM.
On to `O=C(O)[C@H]1/C(=C/CO)O[C@@H]2CC(=O)N21` [Clavulanate, reference compound], for which the IC50 on AmpC_PA, on VIM-1, at NDM-1, on AmpC_AB, against OXA 24/40 and at IMP-1 was more than 200 µM each time. Moreover, the IC50 on KPC-2 is more than 200 µM.
Take `O=C(NNC(=O)[C@@H]1CC[C@@H]2CN1C(=O)N2OS(=O)(=O)O)[C@@H]1CCCNC1` [Zidebactam, reference compound]: the IC50 on VIM-1 was more than 200 µM; at NDM-1, more than 200 µM; at AmpC_AB (setting [2]), 0.248 µM; on OXA 24/40, 51 µM; at IMP-1 it was more than 200 µM; on KPC-2, 2.36 µM.
As usually defined, the MIC is the lowest concentration found to suppress growth. As for `C[C@]1(/C=N/NC(=O)c2cccc(O)c2O)[C@H](C(=O)O)N2C(=O)C[C@H]2S1(=O)=O` [Example 28, (2S,3R,5R)-3-((E)-(2-(2,3-dihydroxybenzoyl)hydrazono)methyl)-3-methyl-7-oxo-4-thia-1-azabicyclo[3.2.0]heptane-2-carboxylic acid 4,4-dioxide], the MIC in the experiment with A.b TNP 41709, in the experiment with A.b TNP 41704, with K. pneumoniae ATCC 43816, with A. baumannii ATCC 19606, in the experiment with P. aeruginosa ATCC 27853 and in the experiment with E. faecium ATCC 700221 was more than 128 µg/mL in each case. Besides, the minimal inhibitory concentration (MIC) (in [1]; with S. aureus ATCC 29213; in the experiment on A.b TNP 41708) was more than 128 µg/mL in each case. The entries for the “MIC A.b TNP 41709” value in the experiment on A.b TNP 41709 (Compounds + meropenem (1:1)) and in the experiment on A.b TNP 41709 (Compounds + sulbactam (1:1)) were 4 µg/mL and 8 µg/mL, respectively. In addition, the “MIC A.b TNP 41704” value was found to be 8 µg/mL with A.b TNP 41704 (Compounds + meropenem (1:1)) and 4 µg/mL in the experiment with A.b TNP 41704 (Compounds + sulbactam (1:1)). In addition, the “MIC A.b TNP 41708” value with A.b TNP 41708 (Compounds + meropenem (1:1)) and with A.b TNP 41708 (Compounds + sulbactam (1:1)) was 8 µg/mL in each case.
Consider `C[C@]1(Cn2ccnn2)[C@H](C(=O)O)N2C(=O)C[C@H]2S1(=O)=O` [Tazobactam, reference compound], for which the IC50 was more than 200 µM on VIM-1; more than 200 µM on NDM-1; 23.8 µM against AmpC_AB; 123 µM against OXA 24/40; more than 200 µM on IMP-1; 90.2 µM on KPC-2.
For `COc1ccc(C(=O)N/N=C/[C@@]2(C)[C@H](C(=O)O)N3C(=O)C[C@H]3S2(=O)=O)cc1` [Example 35, (2S,3R,5R)-3-((E)-(2-(4-methoxybenzoyl)hydrazono)methyl)-3-methyl-7-oxo-4-thia-1-azabicyclo[3.2.0]heptane-2-carboxylic acid 4,4-dioxide], the MIC in the experiment on A.b TNP 41709, in the experiment on A.b TNP 41704, in the experiment with K. pneumoniae ATCC 43816, in the experiment on A. baumannii ATCC 19606, with P. aeruginosa ATCC 27853 and in the experiment on E. faecium ATCC 700221 was more than 128 µg/mL each time. The MIC was more than 128 µg/mL in experiment [1], 128 µg/mL (≈ 324 µM) in the experiment on S. aureus ATCC 29213 and more than 128 µg/mL in the experiment with A.b TNP 41708. In addition, the “MIC A.b TNP 41709” value was 32 µg/mL in the experiment with A.b TNP 41709 (Compounds + meropenem (1:1)) and 4 µg/mL in the experiment on A.b TNP 41709 (Compounds + sulbactam (1:1)). Also, the “MIC A.b TNP 41704” value with A.b TNP 41704 (Compounds + meropenem (1:1)) worked out at 32 µg/mL; in the experiment on A.b TNP 41704 (Compounds + sulbactam (1:1)), 4 µg/mL. For the same compound, the “MIC A.b TNP 41708” value in the experiment on A.b TNP 41708 (Compounds + meropenem (1:1)) came out at 1 µg/mL; in the experiment on A.b TNP 41708 (Compounds + sulbactam (1:1)) it was 16 µg/mL.
